Measurements as given in PMC8322070, “A novel orally active HDAC6 inhibitor T-518 shows a therapeutic potential for Alzheimer’s disease and tauopathy in mice” (Scientific Reports, 2021).

Key:
human HDAC4 = molecular target: T1, human HDAC4 (Homo sapiens, UniProt P56524); test: HDAC enzyme assay (HDAC-Glo class IIa), HDAC4; type: biochemical; details: concentrations up to 10 μM
T1 construct: made in house
Protocol: Recombinant HDAC6, HDAC7, HDAC1 were obtained from SignalChem Pharmaceutical Inc. (Richmond, BC, Canada), and recombinant human HDAC4 was prepared at Takeda pharmaceutical company. One μL of T-518 diluted with DMSO was added to 75 μL of assay buffer (24 mM Tris–HCl (pH 7.5), 135 mM NaCl, 0.35 mM KCl, 1 mM MgCl2, 0.01% Tween 20, 0.6 mM GSH) in 384 well plates. Two μL of diluted compounds were added to 384 well plates and 2 μL of recombinant HDAC enzymes was added and then centrifuged at 1000 rpm for 10 s. The final concentrations of each HDAC enzyme were as follows, human HDAC1, 170 pM; human HDAC6, […]; human HDAC4, 68 pM; human HDAC7, 13 pM. After incubation for 60 min at room temperature, 4 μL of HDAC-Glo reagent [HDAC-Glo I/II (Promega) for HDAC6 and HDAC1, HDAC-Glo class IIa (Promega) for HDAC4 and HDAC7] was added to start the reaction. After incubation for 20 min at room temperature, the luminescence was measured by Envision plate reader (PerkinElmer, Waltham, MA, USA). For experiments under the condition of 0 min preincubation, 4 μL of HDAC-Glo reagent was added at first to the 384 well plates including diluted compounds. […] After centrifugation at 1000 rpm for 10 s. and then incubation for 20 min at room temperature, the luminescence was measured by Envision. […] The inhibitory activity of T-518 was expressed as the value of IC50. […]

[1] = system: tubulin acetylation in mouse primary neural cultures; test: Tubulin acetylation in mouse primary neural culture (ELISA); type: cell-based; details: 24 h
Protocol: (§1) T-518, ACY-738, Ricolinostat, and Tubastatin A were synthesized in Takeda. For in vitro cellular experiments, the compounds were solubilized with DMSO and diluted in the culture medium at the indicated concentrations. For in vivo experiments, the compound was reconstituted in 0.5% methylcellulose and administered orally at the indicated doses. After administration, mouse hippocampus was isolated and homogenized in RIPA extraction buffer (50 mM Tris–HCl, 150 mM NaCl, 1% NP-40, 0.5% sodium deoxycholate, and 0.1% SDS, pH 8.0) supplemented with protease and phosphatase inhibitor cocktail (Thermo Fischer, Waltham, MA, USA). The homogenate was centrifuged at 10,000g for 15 min and the supernatant was taken as the RIPA-soluble fraction.
Primary cortical neurons were prepared from E14 C57BL/6J mouse embryos (CLIEA Japan, Inc., Tokyo, Japan) using papain-containing Neuron Dissociation Solutions (Fujifilm Wako, Tokyo, Japan). Isolated cells were suspended in Neurobasal Medium containing B-27 (Thermo Fisher) and seeded on poly-D-lysine-coated plates (Corning, NY, USA) under 5% CO2 at 37 °C for 6 days in vitro (DIV) prior to evaluation of HDAC6 inhibitors. Cells were treated with HDAC6 inhibitors at the indicated concentrations for 24 h and lysed in RIPA extraction buffer (50 mM Tris–HCl, 150 mM NaCl, 1% NP-40, 0.5% sodium deoxycholate, and 0.1% SDS, pH 8.0) supplemented with protease and phosphatase inhibitor cocktail (Thermo Fisher).
Acetylated α-tubulin and total tubulin levels were measured by sandwich ELISA. Ninety six-well plates (Microlite2+, Thermo) were coated with α-tubulin capture antibody (1:100) by overnight incubation at 4 °C, washed 4 times with PBS'T, treated with blocking buffer (1% bovine serum albumin in PBS'T) at 37 °C for 2 h, and washed another 4 times with PBS’T. Cell or tissues lysate was added to the wells and plates were incubated at 37 °C for 2 h. Plates were then washed 4 times with PBST, incubated with a detection antibody for acetylated tubulin or total α-tubulin diluted in blocking buffer at 37℃ for 1 h, rewashed 4 more times with PBST, incubated with a mouse secondary antibody conjugated to horseradish peroxidase (HRP) for 30 min, wash 4 times again with PBST, and then incubated with chemiluminescent substrate (SuperSignal).

[2] = system: tubulin acetylation in WT mice or HDAC6 KO mice; test: HDAC6 dependency of in vivo tubulin acetylation, WT and HDAC6 KO mice; design: species or system mouse; details: 300 mg/kg
From the text: HDAC6 knockout (KO) mice were generated by deletion of a ~ 1.7-kbp region including exon15–20 of the Hdac6 gene using fertilized C57BL/6J eggs and the CRISPR-Cas9 system. […] Male hemizygous KO mice were selected by qPCR detection of the Hdac6 intron16 sequence (Figure S2A). The qPCR primers and probe sequences were as follows: FW primer; 5′-[…]-3′, RV primer; 5′-[…]-3′ and MGB probe; 5′-CCAGGCCATGTTTT-3′.
as §1
Acetylated α-tubulin and total tubulin levels were measured by sandwich ELISA. […]

P301S tau Tg mice = test: Septohippocampal retrograde axonal transport of Fluoro-Gold in tauopathy model; type: in vivo, mouse; details: 3 mg/kg daily for 2 weeks, 5-month-old P301S tau Tg mice
Protocol: as §1
The integrity of retrograde axonal transport was evaluated by detecting the accumulation of Fluoro-Gold (Fluorochrome, Denver, CO) in the medial septal nucleus after injection into hippocampus (0.5 μL of 5% at AP − 2.3 mm, ML − 2.0 mm, and DV − 2.0 mm relative to bregma). Three days after injection, mice were anesthetized and transcardially perfused with PBS (pH 7.4) followed by 4% paraformaldehyde. […] Fluorescent cells in the medial septum region were counted with Image-Pro Plus software (version 4.5.0.24) (Media Cybernetics, Rockville, MD; https://www.mediacy.com/imageproplus).

experimental mice = test: Tolerability of chronic dosing; type: in vivo

T1 sequence (P56524 whole entry): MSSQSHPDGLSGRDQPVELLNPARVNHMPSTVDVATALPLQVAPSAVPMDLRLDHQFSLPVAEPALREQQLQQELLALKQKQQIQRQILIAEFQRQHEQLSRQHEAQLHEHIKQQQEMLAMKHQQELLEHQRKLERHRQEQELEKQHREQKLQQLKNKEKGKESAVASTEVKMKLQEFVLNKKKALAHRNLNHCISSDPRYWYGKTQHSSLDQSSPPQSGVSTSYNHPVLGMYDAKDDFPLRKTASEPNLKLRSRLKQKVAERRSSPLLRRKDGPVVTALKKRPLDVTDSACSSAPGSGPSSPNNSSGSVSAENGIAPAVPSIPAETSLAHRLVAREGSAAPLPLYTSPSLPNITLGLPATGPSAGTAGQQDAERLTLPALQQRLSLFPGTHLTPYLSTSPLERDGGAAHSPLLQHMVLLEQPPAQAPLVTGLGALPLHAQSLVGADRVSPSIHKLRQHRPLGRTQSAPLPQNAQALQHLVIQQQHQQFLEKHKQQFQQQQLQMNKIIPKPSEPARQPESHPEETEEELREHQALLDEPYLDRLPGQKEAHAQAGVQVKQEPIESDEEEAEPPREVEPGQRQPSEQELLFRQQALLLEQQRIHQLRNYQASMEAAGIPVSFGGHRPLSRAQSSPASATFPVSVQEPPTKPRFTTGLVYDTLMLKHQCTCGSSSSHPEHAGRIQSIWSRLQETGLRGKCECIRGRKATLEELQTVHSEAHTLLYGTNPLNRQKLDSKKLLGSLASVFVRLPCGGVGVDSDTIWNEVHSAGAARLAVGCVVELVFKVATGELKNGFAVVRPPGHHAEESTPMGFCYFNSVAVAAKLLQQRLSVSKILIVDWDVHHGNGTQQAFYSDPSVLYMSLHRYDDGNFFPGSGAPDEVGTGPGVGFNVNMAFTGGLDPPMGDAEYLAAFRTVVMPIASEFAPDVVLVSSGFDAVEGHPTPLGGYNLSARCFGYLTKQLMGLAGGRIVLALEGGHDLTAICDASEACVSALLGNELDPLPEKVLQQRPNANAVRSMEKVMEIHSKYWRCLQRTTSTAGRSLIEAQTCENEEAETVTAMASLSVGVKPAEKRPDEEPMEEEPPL

In the case of `O=C1c2cc(-c3nnc(C(F)F)o3)cnc2CN1[C@@H]1CCCC[C@H]1NC(=O)C(F)(F)C(F)(F)F` [T-518, N-[(1R,2R)-2-{3-[5-(difluoromethyl)-1,3,4-oxadiazol-2-yl]-5-oxo-5H,6H,7H-pyrrolo[3,4-b]pyridin-6-yl}cyclohexyl]-2,2,3,3,3-pentafluoropropanamide], the “inhibition of human HDAC4 enzyme activity” value (human HDAC4) is reported as “did not obviously inhibit”, the “effect on tubulin acetylation” value ([1]; DIV6 mouse primary neural culture, 0.1–10 μM, ELISA) is reported as “significantly and concentration-dependently elevates tubulin acetylation” and the “concentration at which elevation of tubulin acetylation is statistically significant” value ([1]; mouse neurons) is reported as no less than 0.1 µM. For the same compound, the “tubulin acetylation in HDAC6 KO mice” value ([2]; 27-week-old male HDAC6 KO mice) was “had no effect”, the “tubulin acetylation in WT mice” value ([2]; 27-week-old male WT mice) was “significantly elevated tubulin acetylation” and the “retrograde axonal transport of Fluoro-Gold from hippocampus to medial septal nucleus” value (P301S tau Tg mice) was “significantly improved axonal transport”. The “tolerability of chronic dosing” value (experimental mice) was “well tolerated”.
